Data reported in ChEMBL document CHEMBL6096636 (Bioorg Med Chem, 2024).

Assays:
[1] = system: Plasmodium falciparum; assay: microbe, parasite or virus in culture; conditions: 72 h
Description: Antimalarial activity against chloroquine resistant Plasmodium falciparum clinical isolate GB4 assessed as inhibition of growth incubated for 72 hrs by SYBR green I based assay

[2] = system: Plasmodium yoelii; assay: Antimalarial activity against erythrocytic stage of Plasmodium yoelli infected in female mouse model assessed as reduction in parasitemia at 30 mg/kg, ip pre-infected with parasite followed by twice daily compound administration from day 3 to 6 by microscopic analysis; type: functional, organism-based; conditions: time 4.0 day
[3] = Cytotoxicity against human HepG2 cells assessed as inhibition of cell growth incubated for 72 hrs by CCK8 assay; type: toxicity, cell-based
[4] = AUC (0 to infinity) in female Balb/c mouse at 5 mg/kg, ip measured after 24 hrs by LC-MS/MS analysis; type: ADME, organism-based; conditions: in vivo
[5] = Apparent volume of distribution during terminal phase in female Balb/c mouse at 5 mg/kg, ip measured after 24 hrs by LC-MS/MS analysis; type: ADME, organism-based; conditions: in vivo, read-out: Vz/F
[6] = molecular target: T1, Histone deacetylase 8 (Homo sapiens, UniProt Q9BY41); assay: Inhibition of recombinant human HDAC8 using Ac-peptide as substrate preincubated for 15 mins followed by substrate addition for 240 mins and measured after 120 mins of trypsin addition
T1 sequence (Q9BY41 whole entry): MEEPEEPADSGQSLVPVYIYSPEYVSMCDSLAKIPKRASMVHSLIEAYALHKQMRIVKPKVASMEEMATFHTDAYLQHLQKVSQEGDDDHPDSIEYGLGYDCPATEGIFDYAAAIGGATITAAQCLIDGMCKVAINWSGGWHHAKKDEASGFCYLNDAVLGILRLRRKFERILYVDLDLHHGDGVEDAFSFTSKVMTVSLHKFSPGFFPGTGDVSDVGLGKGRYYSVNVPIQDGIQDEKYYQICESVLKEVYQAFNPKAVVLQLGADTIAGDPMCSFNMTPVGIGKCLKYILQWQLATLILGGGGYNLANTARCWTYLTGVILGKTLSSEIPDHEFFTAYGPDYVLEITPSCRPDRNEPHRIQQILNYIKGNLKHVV

[7] = AUC (0 to t) in female Balb/c mouse at 5 mg/kg, ip measured after 24 hrs by LC-MS/MS analysis; type: ADME, organism-based; conditions: in vivo

Cc1ccc2c(CN[C@H]3CC[C@@H](Nc4ncc(C(=O)NO)cn4)CC3)cn(C)c2c1.Cl
IC50 [1]: 29.5 nM
Activity [2]: Active; Only Slight Recurrence Of Parasitemia Was Observed Upon Cessation Of Treatment
IC50 at 72 h [3]: 5290 nM
AUC(0-inf) [4]: 853 ng·h/mL
Vd/F [5]: 16.1 L/kg
IC50 [6]: 43 nM
AUC(0-t) at 24 h [7]: 833 ng·h/mL
